{
  "source": "paper PMC8333425",
  "about": "“Discovery of a dual Ras and ARF6 inhibitor from a GPCR endocytosis screen” (Nature Communications, 2021)",
  "assay_in_all_cases": "KINOMEscan kinase binding assay",
  "key": {"[1]": {"molecular_target": "T1, 384 kinases from the human genome (Homo sapiens, UniProt Q9Y616)", "T1 construct": "purchased Eurofin/DiscoverX", "details": "kinase IRAK3 (Entrez IRAK3)", "method_in_brief": "(§1)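 Competition binding (KINOMEscan) across 384 human kinases with compound at 10 µM. Ligand binding was expressed relative to DMSO (100%) as the average of duplicates from one experiment. S(10) selectivity score was derived.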"}, "[2]": {"molecular_target": "T2, 384 kinases from the human genome (Homo sapiens, UniProt Q86UE8)", "T2 construct": "purchased Eurofin/DiscoverX", "details": "kinase TLK2 (Entrez TLK2)", "method_in_brief": "as §1"}, "[3]": {"molecular_target": "T3, 384 kinases from the human genome (Homo sapiens, UniProt Q9BYT3)", "T3 construct": "purchased Eurofin/DiscoverX", "details": "kinase STK33 (Entrez STK33)", "method_in_brief": "as §1"}, "[4]": {"molecular_target": "T4, 384 kinases from the human genome (Homo sapiens, UniProt P29323)", "T4 construct": "purchased Eurofin/DiscoverX", "details": "kinase EPHB2 (Entrez EPHB2)", "method_in_brief": "as §1"}, "[5]": {"molecular_target": "T5, 384 kinases from the human genome (Homo sapiens, UniProt Q13523)", "T5 construct": "purchased Eurofin/DiscoverX", "details": "kinase PRP4 (Entrez PRPF4B)", "method_in_brief": "as §1"}, "[6]": {"molecular_target": "T6, 384 kinases from the human genome (Homo sapiens, UniProt Q96NX5)", "T6 construct": "purchased Eurofin/DiscoverX", "T6 sequence (Q96NX5 whole entry)": "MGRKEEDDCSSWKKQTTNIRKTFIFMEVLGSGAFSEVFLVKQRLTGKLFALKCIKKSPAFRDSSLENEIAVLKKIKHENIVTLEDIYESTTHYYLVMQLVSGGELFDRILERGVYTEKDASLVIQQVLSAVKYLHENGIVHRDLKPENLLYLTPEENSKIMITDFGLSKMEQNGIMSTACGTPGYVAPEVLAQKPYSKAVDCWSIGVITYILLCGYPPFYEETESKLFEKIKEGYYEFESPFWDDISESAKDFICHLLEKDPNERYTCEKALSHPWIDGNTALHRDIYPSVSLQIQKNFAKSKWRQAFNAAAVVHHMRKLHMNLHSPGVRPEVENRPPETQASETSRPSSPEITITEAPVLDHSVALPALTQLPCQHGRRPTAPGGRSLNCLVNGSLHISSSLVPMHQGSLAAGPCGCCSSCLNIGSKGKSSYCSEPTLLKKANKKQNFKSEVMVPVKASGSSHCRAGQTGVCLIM", "details": "kinase CAMK1G (Entrez CAMK1G)", "method_in_brief": "as §1"}, "[7]": {"molecular_target": "T7, 384 kinases from the human genome (Homo sapiens, UniProt P54764)", "T7 construct": "purchased Eurofin/DiscoverX", "details": "kinase EPHA4 (Entrez EPHA4)", "method_in_brief": "as §1"}, "[8]": {"molecular_target": "T8, 384 kinases from the human genome (Homo sapiens, UniProt O14757)", "T8 construct": "purchased Eurofin/DiscoverX", "details": "kinase CHEK1 (Entrez CHEK1)", "method_in_brief": "as §1"}, "[9]": {"molecular_target": "T9, 384 kinases from the human genome (Homo sapiens, UniProt P32298)", "T9 construct": "purchased Eurofin/DiscoverX", "details": "kinase GRK4 (Entrez GRK4)", "method_in_brief": "as §1"}, "[10]": {"molecular_target": "T10, 384 kinases from the human genome (Homo sapiens, UniProt O14578)", "T10 construct": "purchased Eurofin/DiscoverX", "details": "kinase CIT (Entrez CIT)", "method_in_brief": "as §1"}, "[11]": {"molecular_target": "T11, 384 kinases from the human genome (Homo sapiens, UniProt Q9NWZ3)", "T11 construct": "purchased Eurofin/DiscoverX", "details": "kinase IRAK4 (Entrez IRAK4)", "method_in_brief": "as §1"}, "[12]": {"molecular_target": "T12, 384 kinases from the human genome (Homo sapiens, UniProt Q13554)", "T12 construct": "purchased Eurofin/DiscoverX", "details": "kinase CAMK2B (Entrez CAMK2B)", "method_in_brief": "as §1"}, "[13]": {"molecular_target": "T13, 384 kinases from the human genome (Homo sapiens, UniProt O95835)", "T13 construct": "purchased Eurofin/DiscoverX", "T13 sequence (O95835 whole entry)": "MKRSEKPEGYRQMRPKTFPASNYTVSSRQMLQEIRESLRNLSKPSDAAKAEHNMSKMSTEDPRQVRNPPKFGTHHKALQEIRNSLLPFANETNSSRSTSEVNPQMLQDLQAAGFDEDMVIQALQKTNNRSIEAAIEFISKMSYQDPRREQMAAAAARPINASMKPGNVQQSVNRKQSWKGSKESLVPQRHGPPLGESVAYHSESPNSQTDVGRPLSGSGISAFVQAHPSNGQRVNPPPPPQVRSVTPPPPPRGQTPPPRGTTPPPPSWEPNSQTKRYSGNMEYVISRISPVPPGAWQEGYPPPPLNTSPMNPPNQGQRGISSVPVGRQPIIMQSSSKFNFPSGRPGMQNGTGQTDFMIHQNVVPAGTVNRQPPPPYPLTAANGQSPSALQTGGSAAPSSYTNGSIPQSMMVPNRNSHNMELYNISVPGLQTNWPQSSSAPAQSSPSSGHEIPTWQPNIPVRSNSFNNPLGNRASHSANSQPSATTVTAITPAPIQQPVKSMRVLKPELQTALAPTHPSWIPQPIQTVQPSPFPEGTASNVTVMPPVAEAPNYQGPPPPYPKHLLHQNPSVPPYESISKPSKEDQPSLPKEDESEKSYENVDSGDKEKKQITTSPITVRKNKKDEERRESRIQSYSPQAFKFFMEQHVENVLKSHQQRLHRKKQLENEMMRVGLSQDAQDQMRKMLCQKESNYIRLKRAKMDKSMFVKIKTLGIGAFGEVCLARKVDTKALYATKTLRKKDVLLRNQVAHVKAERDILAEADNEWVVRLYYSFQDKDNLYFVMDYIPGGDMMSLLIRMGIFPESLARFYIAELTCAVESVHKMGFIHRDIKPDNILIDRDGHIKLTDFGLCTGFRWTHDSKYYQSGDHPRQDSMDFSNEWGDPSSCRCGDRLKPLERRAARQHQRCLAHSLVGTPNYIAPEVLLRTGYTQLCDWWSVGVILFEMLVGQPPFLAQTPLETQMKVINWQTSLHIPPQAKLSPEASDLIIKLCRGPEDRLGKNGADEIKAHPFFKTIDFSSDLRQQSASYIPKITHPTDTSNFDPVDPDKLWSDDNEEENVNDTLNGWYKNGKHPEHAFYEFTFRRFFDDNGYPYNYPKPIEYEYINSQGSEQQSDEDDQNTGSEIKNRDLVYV", "details": "kinase LATS1 (Entrez LATS1)", "method_in_brief": "as §1"}, "[14]": {"molecular_target": "T14, 384 kinases from the human genome (Homo sapiens, UniProt Q9NYL2)", "T14 construct": "purchased Eurofin/DiscoverX", "details": "kinase ZAK (Entrez ZAK)", "method_in_brief": "as §1"}, "[15]": {"molecular_target": "T15, 384 kinases from the human genome (Homo sapiens, UniProt P36896)", "T15 construct": "purchased Eurofin/DiscoverX", "T15 sequence (P36896 24-505)": "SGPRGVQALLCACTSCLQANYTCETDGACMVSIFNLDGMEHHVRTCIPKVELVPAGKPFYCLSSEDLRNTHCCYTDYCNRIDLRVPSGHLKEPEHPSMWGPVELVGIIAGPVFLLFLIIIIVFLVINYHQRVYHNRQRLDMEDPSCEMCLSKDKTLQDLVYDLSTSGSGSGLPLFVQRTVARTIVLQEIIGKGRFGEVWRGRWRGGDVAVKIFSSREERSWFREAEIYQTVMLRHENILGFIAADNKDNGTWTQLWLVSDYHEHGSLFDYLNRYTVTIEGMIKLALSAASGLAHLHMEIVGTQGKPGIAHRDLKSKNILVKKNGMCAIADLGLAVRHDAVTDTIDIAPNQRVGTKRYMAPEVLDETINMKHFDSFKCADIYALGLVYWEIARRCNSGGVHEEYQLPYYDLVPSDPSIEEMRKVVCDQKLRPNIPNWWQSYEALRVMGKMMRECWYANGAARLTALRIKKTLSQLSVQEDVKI", "details": "kinase ACVR1B (Entrez ACVR1B)", "method_in_brief": "as §1"}, "[16]": {"molecular_target": "T16, 384 kinases from the human genome (Homo sapiens, UniProt P11309)", "T16 construct": "purchased Eurofin/DiscoverX", "T16 sequence (P11309 whole entry)": "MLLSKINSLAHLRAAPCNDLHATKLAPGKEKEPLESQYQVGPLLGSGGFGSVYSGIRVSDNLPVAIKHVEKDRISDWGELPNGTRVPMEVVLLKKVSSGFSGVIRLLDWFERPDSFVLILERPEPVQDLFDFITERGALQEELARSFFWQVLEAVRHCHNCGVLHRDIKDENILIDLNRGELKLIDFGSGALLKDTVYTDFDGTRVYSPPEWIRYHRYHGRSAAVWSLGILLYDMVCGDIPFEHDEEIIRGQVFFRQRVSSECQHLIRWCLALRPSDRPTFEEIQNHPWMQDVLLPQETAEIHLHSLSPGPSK", "details": "kinase PIM1 (Entrez PIM1)", "method_in_brief": "as §1"}, "[17]": {"molecular_target": "T17, 384 kinases from the human genome (Homo sapiens, UniProt O15111)", "T17 construct": "purchased Eurofin/DiscoverX", "T17 sequence (O15111 whole entry)": "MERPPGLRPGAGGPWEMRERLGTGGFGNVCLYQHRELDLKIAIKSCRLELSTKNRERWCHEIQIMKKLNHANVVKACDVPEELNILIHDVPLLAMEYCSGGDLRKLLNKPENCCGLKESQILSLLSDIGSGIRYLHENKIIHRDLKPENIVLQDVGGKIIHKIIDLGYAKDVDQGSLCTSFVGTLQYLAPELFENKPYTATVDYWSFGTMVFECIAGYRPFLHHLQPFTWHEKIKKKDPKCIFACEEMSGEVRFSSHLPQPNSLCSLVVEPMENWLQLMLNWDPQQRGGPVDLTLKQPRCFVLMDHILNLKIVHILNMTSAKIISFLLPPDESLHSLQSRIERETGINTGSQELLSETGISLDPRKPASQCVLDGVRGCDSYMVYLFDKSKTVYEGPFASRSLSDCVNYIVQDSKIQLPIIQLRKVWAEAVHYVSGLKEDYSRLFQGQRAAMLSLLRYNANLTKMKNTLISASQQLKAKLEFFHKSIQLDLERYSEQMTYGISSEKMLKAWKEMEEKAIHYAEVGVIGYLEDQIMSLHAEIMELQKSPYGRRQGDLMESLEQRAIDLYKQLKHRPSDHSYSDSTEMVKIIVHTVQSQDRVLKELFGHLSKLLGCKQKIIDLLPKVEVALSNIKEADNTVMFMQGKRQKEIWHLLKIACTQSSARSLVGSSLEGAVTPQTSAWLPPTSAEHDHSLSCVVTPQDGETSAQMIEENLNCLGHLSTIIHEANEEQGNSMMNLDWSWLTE", "details": "kinase IKK-alpha (Entrez CHUK)", "method_in_brief": "as §1"}, "[18]": {"molecular_target": "T18, 384 kinases from the human genome (Homo sapiens, UniProt P45985)", "T18 construct": "purchased Eurofin/DiscoverX", "details": "kinase MEK4 (Entrez MAP2K4)", "method_in_brief": "as §1"}, "[19]": {"molecular_target": "T19, 384 kinases from the human genome (Homo sapiens, UniProt Q9Y2H9)", "T19 construct": "purchased Eurofin/DiscoverX", "details": "kinase MAST1 (Entrez MAST1)", "method_in_brief": "as §1"}, "[20]": {"molecular_target": "T20, 384 kinases from the human genome (Homo sapiens, UniProt Q13873)", "T20 construct": "purchased Eurofin/DiscoverX", "details": "kinase BMPR2 (Entrez BMPR2)", "method_in_brief": "as §1"}, "[21]": {"molecular_target": "T21, 384 kinases from the human genome (Homo sapiens, UniProt P46734)", "T21 construct": "purchased Eurofin/DiscoverX", "details": "kinase MEK3 (Entrez MAP2K3)", "method_in_brief": "as §1"}, "[22]": {"molecular_target": "T22, 384 kinases from the human genome (Homo sapiens, UniProt P49841)", "T22 construct": "purchased Eurofin/DiscoverX", "T22 sequence (P49841 whole entry)": "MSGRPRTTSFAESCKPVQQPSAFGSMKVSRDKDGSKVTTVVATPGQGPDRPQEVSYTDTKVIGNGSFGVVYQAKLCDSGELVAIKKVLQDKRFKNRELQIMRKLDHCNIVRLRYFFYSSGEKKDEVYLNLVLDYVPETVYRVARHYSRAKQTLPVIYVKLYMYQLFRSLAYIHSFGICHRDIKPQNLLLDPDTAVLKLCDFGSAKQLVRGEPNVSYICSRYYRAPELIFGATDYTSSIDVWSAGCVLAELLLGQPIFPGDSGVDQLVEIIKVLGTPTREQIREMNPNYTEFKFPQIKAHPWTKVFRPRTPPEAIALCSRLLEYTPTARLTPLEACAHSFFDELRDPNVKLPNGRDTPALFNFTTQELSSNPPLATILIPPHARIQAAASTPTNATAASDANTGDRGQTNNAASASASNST", "details": "kinase GSK3B (Entrez GSK3B)", "method_in_brief": "as §1"}, "[23]": {"molecular_target": "T23, 384 kinases from the human genome (Homo sapiens, UniProt Q6P2M8)", "T23 construct": "purchased Eurofin/DiscoverX", "details": "kinase CAMK1B (Entrez PNCK)", "method_in_brief": "as §1"}, "[24]": {"molecular_target": "T24, 384 kinases from the human genome (Homo sapiens, UniProt Q00535)", "T24 construct": "purchased Eurofin/DiscoverX", "T24 sequence (Q00535 whole entry)": "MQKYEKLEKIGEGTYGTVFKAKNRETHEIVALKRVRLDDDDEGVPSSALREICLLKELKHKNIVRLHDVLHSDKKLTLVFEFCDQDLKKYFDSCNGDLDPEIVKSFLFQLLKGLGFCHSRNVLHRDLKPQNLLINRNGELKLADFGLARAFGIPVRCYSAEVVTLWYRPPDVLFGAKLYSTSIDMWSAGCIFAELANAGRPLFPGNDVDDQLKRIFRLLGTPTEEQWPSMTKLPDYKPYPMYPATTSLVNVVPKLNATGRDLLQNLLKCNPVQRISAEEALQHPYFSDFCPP", "details": "kinase CDK5 (Entrez CDK5)", "method_in_brief": "as §1"}, "[25]": {"molecular_target": "T25, 384 kinases from the human genome (Homo sapiens, UniProt P50613)", "T25 construct": "purchased Eurofin/DiscoverX", "T25 sequence (P50613 whole entry)": "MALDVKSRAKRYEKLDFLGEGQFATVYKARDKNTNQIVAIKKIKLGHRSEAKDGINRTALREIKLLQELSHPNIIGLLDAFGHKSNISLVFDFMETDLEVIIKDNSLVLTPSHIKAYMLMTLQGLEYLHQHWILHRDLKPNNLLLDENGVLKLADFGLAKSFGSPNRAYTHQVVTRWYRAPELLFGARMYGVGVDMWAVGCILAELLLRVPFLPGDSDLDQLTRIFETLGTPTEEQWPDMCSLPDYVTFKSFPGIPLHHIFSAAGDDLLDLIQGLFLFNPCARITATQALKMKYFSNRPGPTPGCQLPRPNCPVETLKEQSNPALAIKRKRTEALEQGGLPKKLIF", "details": "kinase CDK7 (Entrez CDK7)", "method_in_brief": "as §1"}, "[26]": {"molecular_target": "T26, 384 kinases from the human genome (Homo sapiens, UniProt Q9Y2U5)", "T26 construct": "purchased Eurofin/DiscoverX", "T26 sequence (Q9Y2U5 whole entry)": "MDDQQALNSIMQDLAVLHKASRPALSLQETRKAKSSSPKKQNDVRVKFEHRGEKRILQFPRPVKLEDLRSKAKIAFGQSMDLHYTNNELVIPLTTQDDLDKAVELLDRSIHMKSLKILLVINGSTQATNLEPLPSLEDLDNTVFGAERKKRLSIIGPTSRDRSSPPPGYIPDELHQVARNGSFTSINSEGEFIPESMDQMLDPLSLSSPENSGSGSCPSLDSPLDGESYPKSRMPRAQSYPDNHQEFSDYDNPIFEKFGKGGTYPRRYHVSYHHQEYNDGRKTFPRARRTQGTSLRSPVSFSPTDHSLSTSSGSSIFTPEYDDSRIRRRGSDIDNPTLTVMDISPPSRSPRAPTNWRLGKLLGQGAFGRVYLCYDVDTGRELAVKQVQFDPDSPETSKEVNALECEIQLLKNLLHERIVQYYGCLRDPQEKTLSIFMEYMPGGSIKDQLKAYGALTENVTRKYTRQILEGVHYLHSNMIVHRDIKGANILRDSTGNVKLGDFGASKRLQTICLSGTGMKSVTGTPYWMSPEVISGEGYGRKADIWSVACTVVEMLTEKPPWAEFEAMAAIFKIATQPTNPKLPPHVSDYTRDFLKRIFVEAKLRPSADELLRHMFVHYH", "details": "kinase MAP3K2 (Entrez MAP3K2)", "method_in_brief": "as §1"}},
  "data": [
    {"smiles": "CC(C)C(=O)N1CCN(c2ccc(NC(=O)c3cc4ccccc4o3)cc2Cl)CC1", "note": "[Compound 21]", "values": [
      {"measurement": "Percent Control", "setting": "[1]", "result": 67, "unit": "%"},
      {"measurement": "Percent Control", "setting": "[2]", "result": 100, "unit": "%"},
      {"measurement": "Percent Control", "setting": "[3]", "result": 100, "unit": "%"},
      {"measurement": "Percent Control", "setting": "[4]", "result": 94, "unit": "%"},
      {"measurement": "Percent Control", "setting": "[5]", "result": 100, "unit": "%"},
      {"measurement": "Percent Control", "setting": "[6]", "result": 100, "unit": "%"},
      {"measurement": "Percent Control", "setting": "[7]", "result": 95, "unit": "%"},
      {"measurement": "Percent Control", "setting": "[8]", "result": 92, "unit": "%"},
      {"measurement": "Percent Control", "setting": "[9]", "result": 99, "unit": "%"},
      {"measurement": "Percent Control", "setting": "[10]", "result": 75, "unit": "%"},
      {"measurement": "Percent Control", "setting": "[11]", "result": 76, "unit": "%"},
      {"measurement": "Percent Control", "setting": "[12]", "result": 100, "unit": "%"},
      {"measurement": "Percent Control", "setting": "[13]", "result": 98, "unit": "%"},
      {"measurement": "Percent Control", "setting": "[14]", "result": 72, "unit": "%"},
      {"measurement": "Percent Control", "setting": "[15]", "result": 85, "unit": "%"},
      {"measurement": "Percent Control", "setting": "[16]", "result": 96, "unit": "%"},
      {"measurement": "Percent Control", "setting": "[17]", "result": 100, "unit": "%"},
      {"measurement": "Percent Control", "setting": "[18]", "result": 93, "unit": "%"},
      {"measurement": "Percent Control", "setting": "[19]", "result": 100, "unit": "%"},
      {"measurement": "Percent Control", "setting": "[20]", "result": 88, "unit": "%"},
      {"measurement": "Percent Control", "setting": "[21]", "result": 76, "unit": "%"},
      {"measurement": "Percent Control", "setting": "[22]", "result": 99, "unit": "%"},
      {"measurement": "Percent Control", "setting": "[23]", "result": 77, "unit": "%"},
      {"measurement": "Percent Control", "setting": "[24]", "result": 94, "unit": "%"},
      {"measurement": "Percent Control", "setting": "[25]", "result": 83, "unit": "%"},
      {"measurement": "Percent Control", "setting": "[26]", "result": 99, "unit": "%"}
    ]}
  ]
}
